The subject of test [1] is HDL cholesterol. Description: Measurement of the in vivo activity in Syrian golden hamsters. The following applies: peroral. As to the method: In experiments for the determination of the oral action on lipoproteins and triglycerides, test substance dissolved in DMSO and 0.5% suspended in Tylose are administered perorally by means of a stomach tube to Syrian golden hamsters bred in-house. For the determination of the CETP activity, before the start of the experiment blood is taken by retro-orbital puncture (about 250 μl). The test substances are then administered perorally by means of a stomach tube. The control animals receive identical volumes of solvent without test substance. […]
Clotting is terminated by incubation of 4° C. overnight, then centrifugation is carried out for 10 minutes at 6000×g. The content of cholesterol and triglycerides in the serum thus obtained is determined with the aid of modified commercially obtainable enzymatic tests (Ecolin 25 Cholesterol, 1.14830.0001 Merck Diagnostica; Ecoline 25 Triglycerides, 1.14856.0001 Merck Diagnostica). […]
10 μl of serum dilution are treated with 200 μl of Ecoline 25 reagent in 96-hole plates and incubated for 10 minutes at room temperature. The optical density is then determined at a wavelength of 490 nm using an automatic plate reader. The triglyceride or cholesterol concentration contained in the samples is determined with the aid of a standard curve measured in parallel. […]

The target of test [2] is T1, CETP activity in the serum (Homo sapiens, UniProt P11597).
T1 construct: from tissue; host or cells: serum of transgenic hCETP mice
T1 sequence (P11597 18-493): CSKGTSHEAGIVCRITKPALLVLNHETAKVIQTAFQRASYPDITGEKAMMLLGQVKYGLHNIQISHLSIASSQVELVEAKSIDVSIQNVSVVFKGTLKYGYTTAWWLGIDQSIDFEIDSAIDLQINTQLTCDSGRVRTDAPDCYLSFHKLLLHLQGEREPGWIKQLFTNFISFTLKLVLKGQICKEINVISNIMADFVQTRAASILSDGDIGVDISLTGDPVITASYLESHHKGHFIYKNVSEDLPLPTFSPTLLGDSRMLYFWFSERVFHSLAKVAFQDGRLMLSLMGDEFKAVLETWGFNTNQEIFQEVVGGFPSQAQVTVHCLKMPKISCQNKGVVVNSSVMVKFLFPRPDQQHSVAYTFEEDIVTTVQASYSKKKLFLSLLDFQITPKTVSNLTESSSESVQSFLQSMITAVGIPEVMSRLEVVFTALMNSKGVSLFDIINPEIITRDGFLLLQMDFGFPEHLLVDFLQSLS
Description: Measurement of the ex vivo activities on transgenic hCETP mice. The following applies: mouse, 30 mg/kg oral, serum cholesteryl ester transport. It counts as in vivo. As to the method: To test for CETP-inhibitory activity, the substances are administered orally using a stomach tube to transgenic hCETP mice bred in-house (Dinchuk et al. BBA (1995) 1295-301). To this end, male animals are randomly assigned to groups having an equal number of animals, as a rule n=3, one day before the start of the experiment. Before administration of the substance, blood is taken from each mouse by puncture of the retro-orbital venous plexus for the determination of its basal CETP activity in the serum (T1). The test substance is then administered to the animals using the stomach tube. At specific times after administration of the test substance, blood is taken from the animals by puncture a second time (T2), as a rule 0.5, or 1 and 2 h after substance administration, but if appropriate this can also be carried out at another time.
In order to be able to assess the inhibitory activity of a substance, for each time, i.e. 0.5 or 1 or 2 h, a corresponding control group is employed whose animals only receive the formulating agent without substance. In the control animals, the second blood sampling per animal is carried out as in the substance-treated animals in order to be able to determine the change in the CETP activity without inhibitor over the corresponding experimental time interval (0.5, 1 or 2 h).
After termination of the clotting, the blood samples are centrifuged and the serum is removed by pipette.
For the determination of the CETP activity, the cholesteryl ester transport over 4 h is determined. To this end, as a rule 2 μl of serum are employed in the test batch and the test is carried out as described under “CETP fluorescence test”.
The differences in the cholesteryl ester transport [pM CE*/h (T2)−pM CE*/h (T1)] are calculated for each animal and averaged in the groups. A substance which at one of the times reduces the cholesteryl ester transport by >30% is regarded as active.

For test [3], the target named is T2, CETP (Homo sapiens, UniProt P11597).
T2 construct: enriched CETP fraction, obtained from human plasma by means of hydrophobic chromatography; from tissue; host or cells: human plasma
T2 sequence (P11597 18-493): T1 sequence (P11597 18-493)
The test can be described thus: CETP fluorescence test. It counts as biochemical. The following applies: CETP from human plasma, transfer of fluorescent cholesterol ester between liposomes, 37° C., 4 hours; read-out: IC50 [nM] Fluor. test. As to the method:
CETP is obtained in partially purified form from human plasma by differential centrifugation and column chromatography and used for the test. To this end, human plasma is adjusted to a density of 1.21 g per ml using NaBr and centrifuged at 4° C. at 50 000 rpm for 18 h. The bottom fraction (d>1.21 g/ml) is applied to a Sephadex® Phenyl-Sepharose 4B (Pharmacia) column, washed with 0.15 M NaCl/0.001 M tris HCl pH 7.4 and then eluted with distilled water. The CETP-active fractions are pooled, dialysed against 50 mM sodium acetate pH 4.5 and applied to a CM-Sepharose® column (Pharmacia). The mixture is then eluted using a linear gradient (0-1 M NaCl). The pooled CETP fractions are dialysed against 10 mM Tris HCl pH 7.4 and then further purified by chromatography on a Mono Q® column (Pharmacia).
Measurement of the CETP-catalysed transfer of a fluorescent cholesterol ester between liposomes—modified according to the procedure of Bisgaier et al., J. Lipid Res. 34, 1625 (1993):
For the production of the donor liposomes, 1 mg of cholesteryl 4,4-difluoro-5,7-dimethyl-4-bora-3a,4a-diaza-s-indacene-3-dodecanoate (cholesteryl BODIPY® FL C12, Molecular Probes) is dissolved in 600 μl of dioxane with 5.35 mg of triolein and 6.67 mg of phosphatidylcholine with gentle warming in an ultrasonic bath and this solution is added very slowly with ultrasonication to 63 ml of 50 mM tris/HCl, 150 mM NaCl, 2 mM EDTA buffer pH 7.3 at RT.
The suspension is then ultrasonicated under an N2 atmosphere for 30 minutes in the Braukson ultrasonic bath at about 50 watts, the temperature being kept at about 20° C.
The acceptor liposomes are obtained analogously from 86 mg of cholesteryl oleate, 20 mg of triolein and 100 mg of phosphatidylcholine dissolved in 1.2 ml of dioxane and 114 ml of above buffer by ultrasonication at 50 watts (20° C.) for 30 minutes.
For testing, a test mix consisting of 1 part of above buffer, 1 part of donor liposomes and 2 parts of acceptor liposomes is used.
80 μl of test mix are treated with 1-3 μg of enriched CETP fraction, obtained from human plasma by means of hydrophobic chromatography, and 2 μl of the substance to be investigated in DMSO and incubated at 37° C. for 4 hours.
The change in the fluorescence at 485/535 nm is a measure of the CE transfer; the inhibition of the transfer in comparison to the control batch without substance is determined.

Test [4] has as its system HDL. The test can be described thus: Measurement of the in vivo activity in transgenic hCETP mice. To be noted: stomach tube. As to the method:
In experiments for the determination of the oral action on lipoproteins and triglycerides, test substance is administered to transgenic mice [Dinchuck et al., BBA, 1295-301 (1995)] using a stomach tube. Before the start of the experiment, blood is taken from the mice retro-orbitally in order to determine cholesterol and triglycerides in the serum. The serum is obtained as described above for hamsters by incubation at 4° C. overnight and subsequent centrifugation at 6000×g. […] The change in the parameters measured are expressed as the percentage change compared with the starting value.

Setting [5] is: 1 h after administration, read-out: % inhibition at 30 mg/kg 1 h.
The mark [6] stands for this setting: 3 h after administration, read-out: % inhibition at 30 mg/kg 3 h.
[7] abbreviates: 6 h after administration, read-out: % inhibition at 30 mg/kg 6 h.

This note sets out measurements from US20060247303A1, “7H-dibenzo[b,g][1,5]dioxocin-5-one derivatives and use thereof” (BAYER HEALTHCARE AG, priority 2002, published 2006).

Like-named read-outs stand apart in the source and are kept apart here.

Turning to `COc1c([C@@H](O)CC(C)(C)C)ccc2c1C(=O)OCc1c(Cl)c(C)c(Br)c(OC(=O)C3(C)C4CCC3CC4)c1O2` (stereo partly drawn) [Example C-63], the “% increase of HDL after 24 h (dose: 2 × 30 mg/kg)” value in test [1] was found to be 17%. In addition, the inhibition at 30 mg/kg was 83% in test [2] (setting [5]), 65% in test [2] (setting [6]) and 48% in test [2] (setting [7]). Besides, in test [3], the IC50 was 32 nM.

On to `COc1c([C@@H](O)CC(C)(C)C)ccc2c1C(=O)OCc1c(Cl)c(C)c(C)c(OC(=O)C3(C)C4CCC3CC4)c1O2` (stereo partly drawn) [Example C-72], for which the “% increase of HDL after 4 d (dose: 4 × 30 mg/kg)” value in test [4] is given as 68%. Besides, the IC50 in test [3] worked out at 30 nM.

As for `CCc1c(C)c(Cl)c2c(c1OC(=O)C1(C)C3CCC1CC3)Oc1ccc([C@@H](O)CC(C)(C)C)c(OC)c1C(=O)OC2` (stereo partly drawn) [Example C-73], the inhibition at 30 mg/kg stood at 91% in test [2] (setting [5]), 81% in test [2] (setting [6]) and 56% in test [2] (setting [7]). The “% increase of HDL after 4 d (dose: 4 × 30 mg/kg)” value in test [4] was determined as 56%. Moreover, in test [3], the IC50 was found to be 15 nM.

The IC50 is the concentration needed to halve the response being measured.
